Results as given in paper PMC9290024 (ACS Medicinal Chemistry Letters, 2022).

Columns and labels:
[1] = Stability in human hepatocytes; format: in vitro ADME; conditions: 0.5 μM, 120 min
[2] = Stability in mouse hepatocytes; format: in vitro ADME; conditions: 0.5 μM, 60 min
[3] = Stability in rat hepatocytes; format: in vitro ADME; conditions: 0.5 μM, 60 min
[4] = Pharmacokinetics in CD-1 IGS mouse; conditions: mouse PK studies; for parent recovered in feces following iv administration: data not shown

Structure (SMILES)	scaled Clint, human hepatocytes [1] [mL min^–1 kg^–1]	scaled Clint, mouse hepatocytes [2] [mL min^–1 kg^–1]	scaled Clint, rat hepatocytes [3] [mL min^–1 kg^–1]	oral absorption [4]	parent recovered in feces following iv administration [4]
Cc1ccc(F)c2cc(C(=O)N[C@@H]3CCC[C@H](N4CCN5C(=O)CC[C@H]5C4)C3)[nH]c12 [compound 7]	23	425	69		
CC(=O)N1CCN([C@H]2CCC[C@@H](NC(=O)c3cc4c(F)ccc(C)c4[nH]3)C2)CC1 [EZM0414]	9	216	154		
Cc1ccc(F)c2cc(C(=O)N[C@@H]3CCC[C@H](N4CC[C@H](N(C)S(C)(=O)=O)C4)C3)[nH]c12 [EPZ-719, reference compound]	51	721	137		
CC(=O)N1CC[C@H]2CN([C@H]3CCC[C@@H](NC(=O)c4cc5c(F)ccc(C)c5[nH]4)C3)C[C@H]21 [compound 8]	18	889	265	reasonable oral absorption	17–30%
CC(=O)N1CC[C@H]2[C@@H]1CCN2[C@H]1CCC[C@@H](NC(=O)c2cc3c(F)ccc(C)c3[nH]2)C1 [compound 9]	5	103	72	reasonable oral absorption	17–30%
CC(=O)N1CCN(c2cccc(NC(=O)c3cc4c(F)ccc(C)c4[nH]3)c2)CC1 [compound 3]	32	678	283		
